{"source": "patent US20020169101A1", "about": "“Treatment of sexual dysfunction” (priority 1999, published 2002)", "key": {"[1]": {"system": "female rat sexual proceptivity", "experiment": "Female rat sexual proceptivity test (time investigating male vs female stimulus)", "type": "in vivo", "protocol": "Ovariectomised adult female Sprague Dawley rats (180-200 g, from Charles River) were housed in groups of 6 in a reversed lighting system of 12 h light:dark (lights off 7.00-19.00 h). Two weeks after ovariectomy they were used for sexual activity tests. The experiments started at least 5 h into the dark period.\nTests were carried out in a circular arena of 90 cm diameter, surrounded by a 30 cm high wall. Two small cages with wire-mesh front (15×15 cm) are fixed into the wall such that the front of the cage is <> with the wall and the 2 cages are opposite each other. They contained two stimuli animals: an intact sexually experienced male and a receptive female (ovariectomised, primed with 5 μg oestradiol benzoate dissolved in corn oil and injected subcutaneously 48 hours before the test and with 0.5 mg of progesterone four hours before the test). Sexually naive test and control animals were used. Forty eight hours before the tests, both the test and control animals were primed with 5 μg oestradiol benzoate. For animals used as positive controls, progesterone (0.5 mg/0.1 ml) was dissolved in corn oil and administered subcutaneously (s.c.), 4 h before the test. Test and control animals were introduced one at a time for 10 minute periods into the arena. During the 10 min test, the time that the test or positive control animal spent investigating each stimulus animal was noted. The arena was thoroughly cleaned between animals. The position of the male/female stimuli boxes was randomised between animals, in order to avoid place preference. The difference in the percentage of time spent investigating the male minus the female stimuli was calculated, out of the total time spent investigating stimuli animals.\nCompound (1) was dissolved in 100% β-cyclodextrin and then diluted with saline to a final solution of 50% 2-hydroxypropyl-β-cyclodextrin. It was administered intraperitoneally (i.p.) at doses of 3 and 10 mg/kg, in a dosing volume of 1 ml/kg, 1 h before tests. Progesterone (0.5 mg/0.1 ml) was dissolved in corn oil and administered subcutaneously (s.c.), 4 h before test, as a positive control.\nOvariectomised adult female Sprague Dawley rats (180-200 g) were housed in groups of 5 in a reversed lighting system of 12 h light:dark (lights off 5.00-17.00 h). They were used for the experiments at least two weeks after ovariectomy. Forty eight hours before tests, the animals were primed with oestradiol benzoate (5 μg/[…] in corn oil, s.c.). On day 1, progesterone (0.5 mg/0.1 ml, in corn oil, s.c.) was administered to one of the groups 4 h before tests, as a positive control. Compound (1) (15 mg/kg, i.p.) was administered in 50% 2-hydroxypropyl-β-cyclodextrin, 1 h before tests. The test lasted 10 minutes and was carried out as described before. The difference in the percentage of time spent investigating the male minus the female stimuli was calculated, out of the total time spent investigating stimuli animals. Animals were submitted to a test on day 1 and on day 15. From day 2 to 14 the Compound (1) group received a daily injection of the compound (15 mg/kg, i.p.), while both the vehicle and the progesterone groups received an injection of vehicle. On day 15 the test took place again, as described for day 1.\nOvariectomised female rats (Sprague Dawley, obtained from Charles River, UK) were stereotaxically implanted (coordinates 0.89 mm behind Bregma, 1.3 mm lateral and 2.5 mm vertical) with stainless steel cannulae (6 mm long, O.D. 0.75 mm), held in place with dental cement. Animals were housed in groups of three and returned to a reversed lighting system of 12 h light:dark (lights off 5.00-17.00 h). Correct placement of the cannulae was assessed post-mortem. Rats were used for tests two weeks after ovariectomy (one week after cannulation). The experiments started at least 5 h into the dark period. […]"}, "[2]": {"system": "sexual behaviour of sexually dysfunctional male rats", "experiment": "Sexual behaviour of fluoxetine-induced sexually dysfunctional male rats", "type": "in vivo, rat", "settings": "fluoxetine-pretreated rats, Compound (1) 15 mg/kg or yohimbine 2 mg/kg i.p. 1 h before test", "protocol": "Sprague Dawley male rats (Charles River, UK) were kept, 4 rats per cage, in a reversed lighting regime (12:12 hours, lights off at 5.00 h), with free access to food and water. The rats were pre-selected by being presented with a receptive female at 4 days intervals, i.e. every third day (having 2 clear days between presentations) until completing 6-7 trials of baseline determination. The animals showing consistently vigorous behaviour (ejaculatory latencies <300s) were chosen for further experiments. Animals were treated for 3 consecutive days with either vehicle (water) or fluoxetine (20 mg/kg, i.p., in a 2 ml/kg dosing volume). On the fourth day, the animals treated with water received vehicle (veh+veh) and the animals treated with fluoxetine received one of the three following treatments: Compound (1) (15 mg/kg, dissolved in 50% 2-hydroxypropyl-β-cyclodextrin in saline), vehicle (cyclodextrine), or yohimbine (2 mg/kg dissolved in water). All treatments were administered i.p. in a 1 ml/kg volume, 1 h before tests.\nFor all the sexual behaviour tests, the males were placed in an observation arena (50-60 cm diameter), starting 5 hours into the dark cycle and observed under red illumination. Three to 4 minutes after placing the male in the arena, a receptive female (ovariectomised, bearing a 7 mm Silastic implant of oestradiol benzoate) was introduced to the arena and the following parameters noted: Mount Latency: time (in seconds) taken between introduction of female and first mount. A maximum time of 15 minutes (900 seconds) was allowed, and the test terminated if no mounts were recorded within that time (FIG. 16), Ejaculation Latency: time (in seconds) taken from first intromission to ejaculation. A maximum time of 30 minutes (1800 seconds) was given, and the test terminated if ejaculation was not achieved in that time (FIG. 17), Percentage of males achieving ejaculation within 30 minutes was calculated (FIG. 18).\nA one-way ANOVA followed by Dunnett's t test was used to compare the fluoxetine+vehicle group and other groups for mount and ejaculatory latencies. Percentage of animals ejaculating was analysed using a Chi-square test followed by Fisher's test. (*: P<0.05, **: P<0.01, ***: P<0.001; n=15-19)."}}, "note": "Entries after “also recorded” stand apart in the source; their conditions may differ.", "data": [{"smiles": "COc1ccc(C2(CNC(=O)[C@](C)(Cc3c[nH]c4ccccc34)NC(=O)Nc3ccc([N+](=O)[O-])cc3)CCCCC2)nc1", "note": "[Compound (1), (S) 3-(1H-Indol-3-yl)-N-[1-(5-methoxy-pyridin-2-yl)-cyclohexyl-methyl]-2-methyl-2-[3-(4-nitro-phenyl)-ureido]-propionamide]", "values": [{"measurement": "body weight, general behaviour, tolerability on repeated administration", "setting": "[1]; 15 mg/kg i.p. daily for 15 days, female rats", "value": "no changes in body weight or general behaviour; also recorded: well tolerated"}, {"measurement": "proceptivity on day 1 vs vehicle", "setting": "[1]; Compound (1) 15 mg/kg i.p. 1 h before test, progesterone 0.5 mg s.c. 4 h before test (FIG. 3)", "value": "stimulatory effect on proceptivity"}, {"measurement": "percentage of time spent investigating the male stimulus", "setting": "[1]; i.c.v., 3-30 μg/rat, 10 min before test (FIG. 4)", "value": "dose-dependently (3-30 μg/rat) increased the percentage of time spent investigating the male stimulus"}, {"measurement": "percentage of time spent investigating the male stimulus", "setting": "[1]; i.p., 3 and 10 mg/kg, 1 h before test, vs vehicle (FIG. 1)", "value": "dose-dependently (3 mg/kg-10 mg/kg) increased the percentage of time spent investigating the male stimulus"}, {"measurement": "Mount Latency", "setting": "[2]; vs fluoxetine+vehicle (FIG. 16)", "value": "significantly decreased"}, {"measurement": "Ejaculation Latency", "setting": "[2]; vs fluoxetine+vehicle (FIG. 17)", "value": "significantly decreased"}, {"measurement": "percentage of animals ejaculating", "setting": "[2]; vs fluoxetine+vehicle (FIG. 18)", "value": "increasing the percentage of animals ejaculating"}]}]}
